Source: ChEMBL document CHEMBL1201862, “PubChem BioAssay data set” (2004)
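Following 48 hours of exposure in 96-well plates, responses at five concentrations were used to interpolate endpoints linearly. GI50 = concentration required for 50% inhibition of growth.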 Active and inactive are the calls of the source. Cut-off read from the data, not from the text of the source: active = GI50 up to about 1.1 µM and inactive = higher.

Experiments:
Assay in all cases: NCI-60 cell line screen, 48 h
BT-549 = tested on: BT-549
M19-MEL = tested on: M19-MEL
KM-20L2 = tested on: KM-20L2
DLD-1 = tested on: DLD-1
HOP-18 = tested on: HOP-18
LXFL 529 = tested on: LXFL 529
DMS-273 = tested on: DMS-273
XF498 = tested on: XF498

Structure (SMILES): CC(=O)Nc1ccc(-c2nc3ccccc3s2)cc1C
- GI50 (BT-549): 27.5 µM (inactive)

Structure (SMILES): O=C(Nc1cccc(Cl)c1)Nn1cnnc1
- GI50 (BT-549): > 100 µM (inactive)

Structure (SMILES): N=C(N)N/N=C(/c1ccccc1)c1ccc(O)cc1O
- GI50 (BT-549): 37.5 µM (inactive)

Structure (SMILES): Cc1cc(C)c2c(SCc3ccc(Cl)cc3Cl)nc(N)nc2n1
- GI50 (BT-549): > 100 µM (inactive)

Structure (SMILES): CC(=O)Oc1cc2c(cc1OCC(F)(F)F)[C@H]1CC[C@]3(C)[C@@H](OC(C)=O)CC[C@H]3[C@@H]1CC2=O
- GI50 (BT-549): 18.4 µM (inactive)

Structure (SMILES): Cc1c(-c2nc(N)nc(C3CC3)c2C)nc(N)nc1C1CC1
- GI50 (BT-549): > 100 µM (inactive)

Structure (SMILES): CC1=NN(c2nc(N)nc(COc3ccc(N)cc3)n2)C(C)(C)C1
- GI50 (BT-549): > 100 µM (inactive)

Structure (SMILES): COc1ccc(SCc2cc(OC)ccc2OC)cc1
- GI50 (BT-549): 16.1 µM (inactive)

Structure (SMILES): Cn1c(=O)c2ccccc2c2ccccc21
- GI50 (BT-549): 39.6 µM (inactive)

Structure (SMILES): C=CCCCCCCC#CCCCCCCCCCC[C@@H]1C(=O)O[C@H](C)[C@@H]1O.CCCCCCCCC#CCCCCCCCCCC[C@@H]1C(=O)O[C@H](C)[C@@H]1O
- GI50 (BT-549): 15.5 µM (inactive)

Structure (SMILES): CCCCCCCCCCCCC1N=C(N)N2CCCC2=C1C(=O)OC (centres undefined)
- GI50 (BT-549): 10.9 µM (inactive)

Structure (SMILES): O=C(c1c(O)cc(O)cc1O)C1Cc2ccccc21 (centres undefined)
- GI50 (M19-MEL): > 100 µM (inactive)
- GI50 (KM-20L2): > 100 µM (inactive)
- GI50 (DLD-1): > 100 µM (inactive)
- GI50 (HOP-18): 3.18 µM (inactive)
- GI50 (LXFL 529): > 100 µM (inactive)
- GI50 (DMS-273): 48.2 µM (inactive)

Structure (SMILES): CC1=C(C(=O)OCCc2ccc([N+](=O)[O-])cc2)C(c2ccccc2C(F)(F)F)C(C(=O)OC(C)C)=C(C)N1 (centres undefined)
- GI50 (BT-549): 3.21 µM (inactive)

Structure (SMILES): Cc1nc(Cc2n[nH]c(C)n2)n[nH]1
- GI50 (BT-549): > 100 µM (inactive)

Structure (SMILES): N/C(=N\N=C\c1nc2ccccc2o1)c1cnccn1
- GI50 (BT-549): > 100 µM (inactive)

Structure (SMILES): Cc1cccc(/N=N/c2c(C)nn(C(=O)CC(=O)Nc3ccc(Cl)cc3)c2C)c1
- GI50 (BT-549): > 100 µM (inactive)

Structure (SMILES): CN1C(=O)C(c2c[nH]c3ccccc23)N(C)C(=O)C1c1c[nH]c2ccccc12 (centres undefined)
- GI50 (BT-549): > 100 µM (inactive)

Structure (SMILES): N#CCCN(CCC#N)c1ccc(C(/N=N/c2ccc(Cl)cc2)=N\c2ccccc2)cc1
- GI50 (BT-549): 3.33 µM (inactive)

Structure (SMILES): O=C1CCC2(c3ccc(Cl)cc3)Nc3ncccc3N12 (centres undefined)
- GI50 (M19-MEL): > 100 µM (inactive)
- GI50 (KM-20L2): > 100 µM (inactive)
- GI50 (DLD-1): > 100 µM (inactive)
- GI50 (LXFL 529): > 100 µM (inactive)
- GI50 (XF498): > 100 µM (inactive)

Structure (SMILES): COc1ccc(CCN2C(=O)CC34C=CC(CC3C2=O)O4)cc1OC (centres undefined)
- GI50 (BT-549): > 100 µM (inactive)

Structure (SMILES): C=CCOCn1ccc(=O)[nH]c1=O
- GI50 (BT-549): > 100 µM (inactive)

Structure (SMILES): COc1ccc(C(=O)/C=C/c2ccc3c(c2)OCO3)c(OCc2ccccc2)c1
- GI50 (BT-549): 4.79 µM (inactive)

Structure (SMILES): COc1ccc(/C=C/c2cnnc3ccccc23)cc1OC
- GI50 (BT-549): > 10 µM (inactive)

Structure (SMILES): CC(C)(c1cn(Cc2ccccc2)c2ccccc12)c1cn(Cc2ccccc2)c2ccccc12
- GI50 (M19-MEL): > 100 µM (inactive)
- GI50 (DLD-1): 91.2 µM (inactive)
- GI50 (LXFL 529): > 100 µM (inactive)

Structure (SMILES): O=C(Cc1nc2ccccc2s1)Nc1ccc(Cl)cc1
- GI50 (M19-MEL): > 100 µM (inactive)
- GI50 (KM-20L2): 50.6 µM (inactive)
- GI50 (DLD-1): 91.6 µM (inactive)
- GI50 (LXFL 529): 44.2 µM (inactive)
- GI50 (XF498): > 100 µM (inactive)
- GI50 (DMS-273): 84.7 µM (inactive)

Structure (SMILES): CCN(CC)C(=C(C(Cl)=C(Cl)Cl)[N+](=O)[O-])N(CC)CC
- GI50 (BT-549): 83 µM (inactive)

Structure (SMILES): CCC1CC2CN3CCc4c([nH]c5c(-c6c(OC)ccc7c8c([nH]c67)[C@]6(C(=O)OC)CC7CC(CC)C6N(CC8)C7)c(O)ccc45)[C@](C(=O)OC)(C2)C13 (some centres undefined)
- GI50 (BT-549): 17.3 µM (inactive)

Structure (SMILES): COC1(OC)CCc2c(sc3ncnc(Nc4cccc(Br)c4)c23)C1
- GI50 (BT-549): 94.2 µM (inactive)

Structure (SMILES): CC1C=C(NCC2(CO)CCC2)N=C(N)N1 (centres undefined)
- GI50 (BT-549): > 100 µM (inactive)

Structure (SMILES): CC(C)/C(Cl)=N\OC(=O)Nc1ccc(F)c([N+](=O)[O-])c1
- GI50 (BT-549): 13.4 µM (inactive)

Structure (SMILES): CC(C)CN1CC(C)C(=O)NC1=O (centres undefined)
- GI50 (M19-MEL): > 100 µM (inactive)
- GI50 (KM-20L2): > 100 µM (inactive)
- GI50 (DLD-1): > 100 µM (inactive)
- GI50 (LXFL 529): > 100 µM (inactive)
- GI50 (XF498): > 100 µM (inactive)
- GI50 (DMS-273): > 100 µM (inactive)

Structure (SMILES): Cc1c(C)c2c(c(N)c1C#N)C(=O)N(CCN1CCNCC1)C2=O
- GI50 (BT-549): 35.2 µM (inactive)

Structure (SMILES): N#CCOc1cccc(C2(N3CC=CCC3)CCCCC2)c1
- GI50 (BT-549): > 100 µM (inactive)

Structure (SMILES): Clc1ccc(C(OCn2ccnc2)c2nc3ccccc3[nH]2)c(Cl)c1 (centres undefined)
- GI50 (BT-549): 26.1 µM (inactive)

Structure (SMILES): O=C(c1ccccc1)c1ccc2c(c1)nc1n2C(c2c(Cl)cccc2Cl)SC1 (centres undefined)
- GI50 (BT-549): 77.1 µM (inactive)

Structure (SMILES): Cc1ccc([N+](=O)[O-])cc1S(=O)(=O)Nc1ccc(C2=NNC(c3ccccc3)C2)cc1 (centres undefined)
- GI50 (BT-549): 18.4 µM (inactive)

Structure (SMILES): Cc1n[nH]c(=O)n1/N=C/c1ccc([N+](=O)[O-])cc1
- GI50 (BT-549): > 100 µM (inactive)

Structure (SMILES): CSc1cc(Cl)c(C(=O)Nc2ccccc2)cc1S(=O)(=O)n1ccnc1O
- GI50 (BT-549): > 100 µM (inactive)

Structure (SMILES): N#COc1ccc(Oc2ccccc2)cc1
- GI50 (M19-MEL): > 100 µM (inactive)
- GI50 (KM-20L2): > 100 µM (inactive)
- GI50 (DLD-1): > 100 µM (inactive)
- GI50 (HOP-18): > 100 µM (inactive)
- GI50 (LXFL 529): > 100 µM (inactive)
- GI50 (XF498): 97.3 µM (inactive)
- GI50 (DMS-273): 22.5 µM (inactive)

Structure (SMILES): C[n+]1ccccc1/C=C/c1ccc2c(c1)OCO2
- GI50 (BT-549): > 10 µM (inactive)

Structure (SMILES): CC(=O)OC1(C#N)CC2OC1C1C2N1C(=O)OC(C)(C)C (centres undefined)
- GI50 (M19-MEL): > 100 µM (inactive)
- GI50 (KM-20L2): > 100 µM (inactive)
- GI50 (DLD-1): > 100 µM (inactive)
- GI50 (LXFL 529): > 100 µM (inactive)
- GI50 (XF498): > 100 µM (inactive)

Structure (SMILES): O=C1CC(c2cccc([N+](=O)[O-])c2)C2(C(=O)NC(=S)NC2=O)C(c2cccc([N+](=O)[O-])c2)C1 (centres undefined)
- GI50 (BT-549): 26.2 µM (inactive)

Structure (SMILES): COc1ccc2c3c1C(=O)CCCC3CO2 (centres undefined)
- GI50 (M19-MEL): > 100 µM (inactive)
- GI50 (DLD-1): > 100 µM (inactive)
- GI50 (LXFL 529): > 100 µM (inactive)
- GI50 (XF498): > 100 µM (inactive)
- GI50 (DMS-273): > 100 µM (inactive)

Structure (SMILES): CC1(C)C2CC(=O)C1(C)C(O)C2Br (centres undefined)
- GI50 (BT-549): > 100 µM (inactive)

Structure (SMILES): O=S(=O)(O)/C(=N\c1cccc(Cc2ccccc2)c1)Nc1cccc(Cc2ccccc2)c1
- GI50 (BT-549): 17.7 µM (inactive)

Structure (SMILES): CN(C)c1ccc(/C=c2/sc3nc(=O)c(-c4ccccc4NC(=O)C(F)(F)F)nn3c2=O)cc1
- GI50 (M19-MEL): > 100 µM (inactive)
- GI50 (DLD-1): > 100 µM (inactive)
- GI50 (LXFL 529): > 100 µM (inactive)
- GI50 (XF498): > 100 µM (inactive)
- GI50 (DMS-273): > 100 µM (inactive)

Structure (SMILES): CN(C)c1ccc2c(SCC(=O)OCC(=O)[C@@]3(O)CC[C@H]4[C@@H]5CCC6=CC(=O)C=C[C@]6(C)[C@H]5C(=O)C[C@@]43C)c3ccc(N(C)C)cc3nc2c1
- GI50 (BT-549): 9.59 µM (inactive)

Structure (SMILES): CC1(C)[C@@H]2CC[C@@]1(C)C1(S[S+]1[O-])C21Cc2ccccc2C1 (some centres undefined)
- GI50 (BT-549): 32.1 µM (inactive)

Structure (SMILES): CC[C@H](C)[C@H](NC(=O)[C@@]1(O)[C@H](O)[C@]2(CC)C=CCN3CC[C@@]4(c5cc(Br)c(OC)cc5N(C)[C@@H]14)[C@@H]32)C(=O)OC
- GI50 (BT-549): 88.5 µM (inactive)

Structure (SMILES): Oc1cccc(-c2cc(O)c3cc4c(cc3n2)OCO4)c1
- GI50 (M19-MEL): 1.49 µM (inactive)
- GI50 (BT-549): 0.867 µM (active)
- GI50 (DLD-1): 3.43 µM (inactive)
- GI50 (HOP-18): > 100 µM (inactive)
- GI50 (LXFL 529): 1.87 µM (inactive)
- GI50 (XF498): 7.26 µM (inactive)
- GI50 (DMS-273): 1.09 µM (active)

Structure (SMILES): Nc1cccc(-c2cc(O)c3cc4c(cc3n2)OCO4)c1
- GI50 (M19-MEL): 0.931 µM (active)
- GI50 (BT-549): > 100 µM (inactive)
- GI50 (HOP-18): 40.2 µM (inactive)
- GI50 (LXFL 529): 0.527 µM (active)
- GI50 (XF498): 7.26 µM (inactive)
- GI50 (DMS-273): 0.889 µM (active)

Structure (SMILES): Cc1c2cc[n+](C)cc2c(C)c2c1[nH]c1ccc(OCC(F)(F)F)cc12
- GI50 (M19-MEL): 2.14 µM (inactive)
- GI50 (KM-20L2): 3.15 µM (inactive)
- GI50 (DLD-1): 1.4 µM (inactive)
- GI50 (HOP-18): 1.96 µM (inactive)
- GI50 (LXFL 529): 0.501 µM (active)
- GI50 (DMS-273): 1.25 µM (inactive)

Structure (SMILES): O=S(=O)(N/C(=N\O)Nc1ccc(Cl)cc1)c1ccc(S(=O)(=O)c2ccccc2)s1
- GI50 (BT-549): 15.4 µM (inactive)

Structure (SMILES): O=c1[nH]cc(F)c(=O)[nH]1 [FLUOROURACIL]
- GI50 (BT-549): 110 µM (inactive)
